ChEMBL document CHEMBL1144615, “Neuroprotective effects of kobophenol A against the withdrawal of tropic support, nitrosative stress, and mitochondrial damage in SH-SY5Y neuroblastoma cells” (2007)
Calls of active or inactive are those of the source. The calls are words filed in the database; no cut-off is given here.

How the values were obtained:
SH-SY5Y [1] = test: Inhibition of 2 mM paraquat-induced cell death in SH-SY5Y cells assessed as increase in cell viability at 20 ug/mL after 24 hrs by MTT assay relative to control; assay type: functional, Homo sapiens
SH-SY5Y [2] = test: Effect on 2 mM paraquat-induced intracellular calcium level in SH-SY5Y cells after 24 hrs relative to contro; assay type: functional, Homo sapiens
SH-SY5Y [3] = test: Effect on 3 mM sodium nitroprusside-induced mitochondrial transmembrane potential level in SH-SY5Y cells after 24 hrs; assay type: functional, Homo sapiens
SH-SY5Y [4] = test: Effect on 3 mM sodium nitroprusside-induced mitochondrial transmembrane potential level in SH-SY5Y cells after 8 hrs; assay type: functional, Homo sapiens
Caspase-9 (Homo sapiens) [5] = target: T1, Caspase-9 (Homo sapiens) (UniProt P55211); test: Decrease in paraquat-induced caspase 9 activity in SH-SY5Y cells; assay type: cell-based
T1 sequence (whole entry): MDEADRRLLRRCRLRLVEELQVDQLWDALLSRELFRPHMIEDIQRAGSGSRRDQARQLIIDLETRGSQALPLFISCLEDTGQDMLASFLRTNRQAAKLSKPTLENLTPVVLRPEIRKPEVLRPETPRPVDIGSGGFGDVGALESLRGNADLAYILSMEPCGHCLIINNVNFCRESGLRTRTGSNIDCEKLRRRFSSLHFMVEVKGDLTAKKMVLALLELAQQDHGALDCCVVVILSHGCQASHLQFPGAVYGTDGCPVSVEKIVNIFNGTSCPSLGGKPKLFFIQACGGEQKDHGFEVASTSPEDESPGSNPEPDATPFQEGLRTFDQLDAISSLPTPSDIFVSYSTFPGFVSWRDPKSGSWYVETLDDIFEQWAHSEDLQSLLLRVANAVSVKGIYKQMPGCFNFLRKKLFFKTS

SH-SY5Y [6] = test: Inhibition of 2 mM paraquat-induced cell death in SH-SY5Y cells assessed as increase in cell viability at 10 ug/mL after 24 hrs by MTT assay relative to control; assay type: functional, Homo sapiens
SH-SY5Y [7] = test: Increase in cell viability of SH-SY5Y cells in serum starved conditions at 30 ug/mL after 48 hrs by MTT assay relative to control; assay type: functional, Homo sapiens
SH-SY5Y [8] = test: Reduction on sodium nitroprusside-induced ROS production in SH-SY5Y cells; assay type: functional, Homo sapiens; design: scale not given: the % may be the effect or the level left
SH-SY5Y [9] = test: Reduction on paraquat-induced ROS production in SH-SY5Y cells; assay type: functional, Homo sapiens; design: scale not given: the % may be the effect or the level left
SH-SY5Y [10] = test: Increase in cell viability of SH-SY5Y cells in serum starved conditions at 10 ug/mL after 48 hrs by MTT assay relative to control; assay type: functional, Homo sapiens
SH-SY5Y [11] = test: Inhibition of 1 mM sodium nitroprusside-induced cell death in SH-SY5Y cells assessed as increase in cell viability at 30 ug/mL after 24 hrs by MTT assay relative to control; assay type: functional, Homo sapiens
SH-SY5Y [12] = test: Increase in cell viability of SH-SY5Y cells in serum starved conditions at 20 ug/mL after 48 hrs by MTT assay relative to control; assay type: functional, Homo sapiens
SH-SY5Y [13] = test: Effect on 2 mM paraquat-induced intracellular calcium level in SH-SY5Y cells after 8 hrs relative to control; assay type: functional, Homo sapiens
SH-SY5Y [14] = test: Reduction of nitric oxide-induced intracellular calcium level in SH-SY5Y cells; assay type: functional, cell-based; settings: Homo sapiens
SH-SY5Y [15] = test: Inhibition of 3 mM sodium nitroprusside-induced cell death in SH-SY5Y cells assessed as increase in cell viability at 30 ug/mL after 24 hrs by MTT assay relative to control; assay type: functional, Homo sapiens
Caspase-3 (Homo sapiens) [16] = target: T2, Caspase-3 (Homo sapiens) (UniProt P42574); test: Decrease in paraquat-induced caspase-3 activity in SH-SY5Y cells; assay type: cell-based
T2 sequence (whole entry): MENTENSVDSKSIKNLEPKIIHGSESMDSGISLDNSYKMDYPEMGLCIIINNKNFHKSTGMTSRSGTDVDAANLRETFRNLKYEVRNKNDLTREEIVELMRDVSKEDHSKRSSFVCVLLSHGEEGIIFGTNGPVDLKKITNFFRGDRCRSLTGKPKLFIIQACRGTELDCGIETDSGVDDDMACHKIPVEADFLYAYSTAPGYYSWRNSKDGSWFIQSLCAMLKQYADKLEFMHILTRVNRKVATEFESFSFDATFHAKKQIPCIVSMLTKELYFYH

SH-SY5Y [17] = test: Reduction of sodium nitroprusside-induced nitric oxide production in SH-SY5Y cells; assay type: functional, cell-based; settings: Homo sapiens
Caspase-9 (Homo sapiens) [18] = target: T1, Caspase-9 (Homo sapiens); test: Decrease in sodium nitroprusside-induced caspase 9 activity in SH-SY5Y cells; assay type: cell-based
SH-SY5Y [19] = test: Reduction of sodium nitroprusside-induced cell death in SH-SY5Y cells assessed as subG1 DNA content relative to control; assay type: functional, cell-based; settings: Homo sapiens
SH-SY5Y [20] = test: Effect on sodium nitroprusside-induced intracellular calcium level in SH-SY5Y cells after 8 hrs relative to control; assay type: functional, Homo sapiens
SH-SY5Y [21] = test: Effect on sodium nitroprusside-induced intracellular calcium level in SH-SY5Y cells after 25 hrs relative to control; assay type: functional, Homo sapiens
Caspase-3 (Homo sapiens) [22] = target: T2, Caspase-3 (Homo sapiens); test: Decrease in sodium nitroprusside-induced caspase-3 activity in SH-SY5Y cells; assay type: cell-based
SH-SY5Y [23] = test: Inhibition of 2 mM paraquat-induced cell death in SH-SY5Y cells assessed as increase in cell viability at 30 ug/mL after 24 hrs by MTT assay relative to control; assay type: functional, Homo sapiens
SH-SY5Y [24] = test: Inhibition of 5 mM sodium nitroprusside-induced cell death in SH-SY5Y cells assessed as increase in cell viability at 30 ug/mL after 24 hrs by MTT assay relative to control; assay type: functional, Homo sapiens
SH-SY5Y [25] = test: Reduction of paraquat-induced cell death in SH-SY5Y cells assessed as subG1 DNA content relative to control; assay type: functional, cell-based; settings: Homo sapiens

For `Oc1ccc([C@H]2Oc3cc(O)cc([C@@H]4[C@H](c5cc(O)cc(O)c5)[C@@H](c5ccc(O)cc5)O[C@H]4c4ccc(O)cc4)c3[C@@H]2c2cc(O)c3c(c2)[C@@H](c2cc(O)cc(O)c2)[C@H](c2ccc(O)cc2)O3)cc1` [KOBOPHENOL A], the Activity (SH-SY5Y [1]) was 85.6%, the Activity (SH-SY5Y [2]) was 98.3% and the Activity (SH-SY5Y [3]) was 119.3%. The Activity (SH-SY5Y [4]) was 128.3%, the Activity (Caspase-9 (Homo sapiens) [5]) was “Dose-dependent effect” and the Activity (SH-SY5Y [6]) was 66.3%. For the same compound, the Activity (SH-SY5Y [7]) was 78.7%, the Activity (SH-SY5Y [8]) was 103.4% and the Activity (SH-SY5Y [9]) was 103.6%. It also gave an Activity (SH-SY5Y [10]) of 105.7%, an Activity (SH-SY5Y [11]) of 108.6% and an Activity (SH-SY5Y [12]) of 91.4%. For the same compound, the Activity (SH-SY5Y [13]) was 99.1%, the Activity (SH-SY5Y [14]) was “Active” and the Activity (SH-SY5Y [15]) was 109.8%. For the same compound, the Activity (Caspase-3 (Homo sapiens) [16]) was “Active”, the Activity (SH-SY5Y [17]) was “inactive” and the Activity (Caspase-9 (Homo sapiens) [18]) was “Dose-dependent effect”. The Activity (SH-SY5Y [19]) was “Active”, the Activity (SH-SY5Y [20]) was 96.1% and the Activity (SH-SY5Y [21]) was 96.1%. The Activity (Caspase-3 (Homo sapiens) [22]) was “Dose-dependent effect”, the Activity (SH-SY5Y [23]) was 102.5% and the Activity (SH-SY5Y [24]) was 88.1%. The Activity (SH-SY5Y [25]) was “Active”.
